According to US6461997B1, “Triazole sulfones having herbicidal activity” (Monsanto Technology LLC, priority 1999, dated 2002):

Legend:
[1] = test system: IPOSS (annual morningglory); assay: Pre-emergence herbicidal activity, warm season; type: in vivo, Ipomoea spp.; details: Ipomoea, pre-emergence application, read-out: Percent inhibition, weed IPOSS
Description: (§1) Tables 5 to 8 summarize results of tests conducted as described below to determine the pre-emergence herbicidal activity, in the form of a GR80 value, of illustrative compounds of this invention. […] Compounds of the invention were typically applied at rates of 300, 100, 30, and 10 g/ha. Where herbicidal activity was evident but 80% inhibition was not achieved at the highest rate tested, an asterisk (*) is shown in the following tables.
(§2) The pre-emergence tests were conducted by the following procedure. Topsoil was sieved to pass through a 1.27 cm screen. Fertilizer was added to the topsoil and the mixture was then sterilized by heating. The topsoil mixture was placed in a pot and compacted to a depth of 1.0 to 1.25 cm from the top of the pot. Seeds of each of several monocotyledonous and dicotyledonous annual plant species were placed on top of the soil. Additional soil was subsequently placed over the seeds to level-fill the pot. A known amount of each test compound dissolved or suspended in an appropriate organic solvent was diluted with a 50:50 mix of acetone and water and applied to the surface of the soil. After treatment the plants were placed in a greenhouse where they received 0.64 cm of overhead irrigation. All subsequent watering consisted of a light overhead mist and/or subirrigation as needed for germination and growth. Tables 5 and 6 below relate to warm season plant species which were placed after pre-emergence treatment in a greenhouse with a 30/21° C. day/night temperature regime. Tables 7 and 8 below relates to cool season plant species placed after pre-emergence treatment in a greenhouse or growth chamber with an 18/13° C. day/night temperature regime.
(§3) Approximately 14 days after planting and treating, the plants were observed and herbicidal efficacy recorded as percent inhibition by comparison with untreated plants.
(§4) The plant species usually regarded as weeds which were utilized in the tests are identified in the tables below according to the following legend, in which “d” indicates a dicotyledonous species and “m” a monocotyledonous species. All monocotyledonous species included in the tests herein are grasses.

SEBEX [2] = assay: Pre-emergence herbicidal activity, warm season (selectivity test, Table 15); type: in vivo; details: pre-emergence application, read-out: Percent inhibition, weed SEBEX
Description: as §2, §3
(§5) Additional pre-emergence and PPI tests were conducted by the procedures described above, on warm and cool season weed species in the presence of crop species, to assess herbicidal selectivity. Crop species included in warm season tests were corn (Zea mays, ZEAMX), rice (Oryza sativa, ORYSA) and soybean (Glycine max, GLYMX). Crop species included in cool season tests were wheat (Triticum aestivum, TRZAW), barley (Hordeunm vulgare, HORVX) and oilseed rape (Brassica napus, BRSNS).
(§6) Tables 15 and 16 relate to pre-emergence and PPI tests respectively on warm season species. Table 17 relates to pre-emergence tests on cool season species.

[3] = test system: VERPE (creeping speedwell); assay: Post-emergence herbicidal activity, cool season; type: in vivo, Veronica persicaria; details: abraded plants sprayed; GR80 = lowest tested rate (300, 100, 30, 10 g/ha) with 80% or greater inhibition; approx. 14 days after treatment; 18/13° C.
Description: (§7) In another set of tests, the post-emergence activity of compounds of this invention was evaluated on the cool season species listed above. The following procedure was used.
(§8) A pre-prepared topsoil mixture (described above) was placed in a pot and compacted to a depth of 1.0 to 1.25 cm from the top of the pot. Seeds of each of several monocotyledonous and dicotyledonous annual plant species were placed on top of the soil. The seeds were covered with a mixture of 50% topsoil and 50% Rediearth™ in sufficient quantity to level-fill the pots. The pots were then placed on a greenhouse bench and subirrigated as needed.
(§9) When plants growing from the seeds had emerged and reached a suitable growth stage for post-emergence treatment, typically 9 to 14 days after planting, above-ground parts of the plants were subjected to a pre-treatment involving abrasion to create greater opportunity for foliar uptake of subsequently applied compounds. Abrasion was performed using garnet 200w particles applied with a Sears Craftsman hand-held sandblaster operated at approximately 850 kPa (50 psig) pressure. […]
(§10) After treatment the plants were placed in a greenhouse with an 18/13° C. day/night temperature regime and were subsequently watered as needed for growth. Approximately 14 days after treatment, the plants were observed and herbicidal efficacy recorded as percent inhibition by comparison with control plants. […]

KCHSC (kochia) = assay: Post-emergence herbicidal activity, cool season; type: in vivo, Kochia scoparia; details: abraded plants sprayed; GR80 = lowest tested rate (300, 100, 30, 10 g/ha) with 80% or greater inhibition; approx. 14 days after treatment; 18/13° C.
Description: as §7, §8, §9, §10

SEBEX [4] = assay: Pre-plant incorporated (PPI) herbicidal activity, warm season; type: in vivo; details: PPI application, read-out: Percent inhibition SEBEX
Description: as §5

rice (ORYSA) = assay: Selectivity test, pre-emergence, warm season crop; type: in vivo; details: Oryza sativa, pre-emergence application, read-out: Percent inhibition, crop ORYSA
Description: as §2, §3, §5, §6

soybean (GLYMX) = assay: Selectivity test, pre-emergence, warm season crop; type: in vivo; details: Glycine max, pre-emergence application, read-out: Percent inhibition, crop GLYMX
Description: as §2, §3, §5, §6

corn (ZEAMX) = assay: Selectivity test, pre-emergence, warm season crop; type: in vivo; details: Zea mays, pre-emergence application, read-out: Percent inhibition, crop ZEAMX
Description: as §2, §3, §5, §6

[5] = test system: AEGCY (jointed goatgrass); assay: Pre-emergence herbicidal activity, cool season; type: in vivo, Aegilops cylindrica; details: GR80 = lowest tested rate (300, 100, 30, 10 g/ha) with 80% or greater inhibition; approx. 14 days after treating; 18/13° C.
Description: as §1, §2, §3, §4

SASKR (russian thistle) = assay: Post-emergence herbicidal activity, cool season; type: in vivo, Salsola kali; details: abraded plants sprayed; GR80 = lowest tested rate (300, 100, 30, 10 g/ha) with 80% or greater inhibition; approx. 14 days after treatment; 18/13° C.
Description: as §7, §8, §9, §10

| SMILES | inhibition at 10 g/ha [1] | inhibition at 30 g/ha [1] | inhibition at 100 g/ha [1] | inhibition at 300 g/ha [1] | inhibition at 900 g/ha [1] | inhibition at 10 g/ha (SEBEX [2]) | inhibition at 30 g/ha (SEBEX [2]) | inhibition at 100 g/ha (SEBEX [2]) | inhibition at 300 g/ha (SEBEX [2]) | inhibition at 900 g/ha (SEBEX [2]) | Post-emergence activity (GR80) KCHSC (KCHSC (kochia)) | melting point | inhibition at 10 g/ha (SEBEX [4]) | inhibition at 30 g/ha (SEBEX [4]) | inhibition at 300 g/ha (SEBEX [4]) | inhibition at 900 g/ha (SEBEX [4]) | inhibition at 10 g/ha (rice (ORYSA)) | inhibition at 30 g/ha (rice (ORYSA)) | inhibition at 100 g/ha (rice (ORYSA)) | inhibition at 900 g/ha (rice (ORYSA)) | other results |
| --- | --- | --- | --- | --- | --- | --- | --- | --- | --- | --- | --- | --- | --- | --- | --- | --- | --- | --- | --- | --- | --- |
| CCN(CC)C(=O)n1cnc(S(=O)(=O)C(F)(F)Br)n1 [Example 1, 3-(bromodifluoromethylsulfonyl)-1-(N,N-diethylcarbamoyl)-1,2,4-triazole] | 0% | 0% | 0% | 0% | 0% | 0% | 0% | 0% | 0% | 0% | 100 g/ha | 74 to 75 °C | 0% | 0% | 0% | 20% | 0% | 0% | 0% | 10% | Post-emergence activity (GR80) VERPE [3]: 300 g/ha; inhibition at 100 g/ha (SEBEX [4]; 100 g/ha): 0%; inhibition at 10 g/ha (soybean (GLYMX)): 0%; inhibition at 30 g/ha (soybean (GLYMX)): 0%; inhibition at 100 g/ha (soybean (GLYMX)): 0%; inhibition at 900 g/ha (soybean (GLYMX)): 0%; inhibition at 10 g/ha (corn (ZEAMX)): 0%; inhibition at 30 g/ha (corn (ZEAMX)): 0%; inhibition at 100 g/ha (corn (ZEAMX)): 0%; inhibition at 300 g/ha (corn (ZEAMX)): 0%; inhibition at 900 g/ha (corn (ZEAMX)): 10% |
| CCN(CC)C(=O)n1cnc(S(=O)(=O)C(F)(F)C(F)(F)Br)n1 [Example 4] |  |  |  |  |  |  |  |  |  |  |  |  |  |  |  |  |  |  |  |  | Pre-emergence activity (GR80) AEGCY [5]: * (activity observed, at least at highest rate, but <80% inhibition) |
| CCN(CC)C(=O)n1cnc(S(=O)(=O)C(F)F)n1 [Example 15, 1-(N,N-diethylcarbamoyl)-3-(difluoromethylsulfonyl)-1,2,4-triazole] | 0% | 0% | 0% | 0% | 0% | 0% | 0% | 0% | 0% | 35% | 100 g/ha | 58 to 59 °C | 0% | 0% | 0% | 50% | 0% | 0% | 0% | 0% | Post-emergence activity (GR80) SASKR (SASKR (russian thistle)): 100 g/ha; inhibition at 300 g/ha (rice (ORYSA); 300 g/ha): 0%; inhibition at 10 g/ha (soybean (GLYMX)): 0%; inhibition at 30 g/ha (soybean (GLYMX)): 0%; inhibition at 100 g/ha (soybean (GLYMX)): 0%; inhibition at 300 g/ha (soybean (GLYMX); 300 g/ha): 0%; inhibition at 900 g/ha (soybean (GLYMX)): 10%; inhibition at 10 g/ha (corn (ZEAMX)): 0%; inhibition at 30 g/ha (corn (ZEAMX)): 0%; inhibition at 100 g/ha (corn (ZEAMX)): 0%; inhibition at 300 g/ha (corn (ZEAMX)): 0%; inhibition at 900 g/ha (corn (ZEAMX)): 0% |
